Data published in patent publication US5981558A, “DC107 derivatives” (Kyowa Hakko Kogyo Co., Ltd., priority 1996, dated 1999).
pIC50: −log10 of the molar value.

Each compound was assayed on HeLa S3 cells (assay: HeLa S3 Cell Growth Inhibition Test). Conditions: HeLa S3; 72 hours incubation; Neutral Red; read-out: IC50, HeLa S3 cell growth inhibition.
Assay type: cell-based
Experimental: In each well of a 96-well microtiter plate was placed 0.1 mL of HeLa S3 cells having a concentration of 8×10^3 cells/mL and prepared in an MEM culture medium containing 10% fetal bovine serum and 2 mM glutamine. After the cells were incubated overnight at 37° C. in a carbon dioxide incubator, a test compound suitably diluted with a medium was added to the wells in an amount of 0.05 mL for each well. The cells were incubated at 37° C. for 72 hours in a carbon dioxide incubator. After the culture supernatant was removed, 0.1 mL of a culture medium containing 0.02% Neutral Red was added to each well. The cells were then incubated at 37° C. for 1 hour in a carbon dioxide incubator to dye the cells. After the culture supernatant was removed, each residue was rinsed once with physiological saline and the pigment was extracted with 0.001 N hydrochloric acid/30% ethanol. The absorbance at 550 nm of each extract was measured with a microplate reader. The drug concentration required for the 50% inhibition of cell growth, which is referred to as IC50, was calculated by comparing the absorbance for untreated cells with those for cells treated with the drug in known concentrations.
COC(=O)NCC(=O)OCSC(=O)C(C)(O)C12CC/C(C)=C/C(OC3CCCCO3)C(=O)/C=C/C=C\c3csc(n3)C(C)N(C(=O)C1)[S+]2[O-] (single isomer, unassigned) [Compound 42] showed a pIC50 of 7.33.
In the case of COC(=O)[C@H](CCC(=O)OCSC(=O)C(C)(O)C12CC/C(C)=C/C(OC3CCCCO3)C(=O)/C=C/C=C\c3csc(n3)C(C)N(C(=O)C1)[S+]2[O-])NC(=O)[C@@]12O[C@@H](CO)[C@@H](O)[C@@H]1OC(C)(C)O2 (single isomer, unassigned) [Compound 65], the pIC50 was 8.51.
COC(=O)[C@H](CCC(=O)OCSC(=O)C(C)(O)C12CC/C(C)=C/C(OC3CCCCO3)C(=O)/C=C/C=C\c3csc(n3)C(C)N(C(=O)C1)[S+]2[O-])NC(=O)[C@@]12O[C@@H](CO)[C@@H](O)[C@@H]1OC(C)(C)O2 (single isomer, unassigned) [Compound 66] showed a pIC50 of 7.32.

Same assay, conditions: Homo sapiens, HeLa S3, 72 h, HeLa S3; 72 hours incubation; Neutral Red; read-out: IC50, HeLa S3 cell growth inhibition
COC(=O)CCC(=O)OCSC(=O)C(C)(O)C12CCC(C)=CC(O)C(=O)C=CC=Cc3csc(n3)C(C)N(C(=O)C1)[S+]2[O-] (centres unmarked) [Compound 1] was tested, and the pIC50 was 8.15.
COc1ccc(COCC(=O)OCSC(=O)C(C)(O)C23CCC(C)=CC(O)C(=O)C=CC=Cc4csc(n4)C(C)N(C(=O)C2)[S+]3[O-])cc1 (centres unmarked) [Compound 13] was tested, and the pIC50 was 7.96.
CC1=CC(O)C(=O)C=CC=Cc2csc(n2)C(C)N2C(=O)CC(C(C)(O)C(=O)SCOC(=O)CNC(=O)[C@@]34O[C@H]5COC(C)(C)O[C@H]5[C@@H]3OC(C)(C)O4)(CC1)[S+]2[O-] (some centres unmarked) [Compound 19] was tested, and the pIC50 was 7.24.
CC1=CC(O)C(=O)C=CC=Cc2csc(n2)C(C)N2C(=O)CC(C(C)(O)C(=O)SCOC(=O)CCNC(=O)[C@@]34O[C@H]5COC(C)(C)O[C@H]5[C@@H]3OC(C)(C)O4)(CC1)[S+]2[O-] (some centres unmarked) [Compound 20] was tested, and the pIC50 was 6.96.
COC(=O)[C@H](CCC(=O)OCSC(=O)C(C)(O)C12CCC(C)=CC(O)C(=O)C=CC=Cc3csc(n3)C(C)N(C(=O)C1)[S+]2[O-])NC(=O)c1ccc(OC(C)=O)cc1 (some centres unmarked) [Compound 26] gave a pIC50 of 7.17.
CC(=O)Oc1ccc(C(=O)OCSC(=O)C(C)(O)C23CCC(C)=CC(O)C(=O)C=CC=Cc4csc(n4)C(C)N(C(=O)C2)[S+]3[O-])cc1 (centres unmarked) [Compound 30] showed a pIC50 of 7.82.
CC(=O)Oc1ccc(CCC(=O)OCSC(=O)C(C)(O)C23CCC(C)=CC(O)C(=O)C=CC=Cc4csc(n4)C(C)N(C(=O)C2)[S+]3[O-])cc1 (centres unmarked) [Compound 32] gave a pIC50 of 8.89.
CC(=O)Oc1ccc(CCCC(=O)OCSC(=O)C(C)(O)C23CCC(C)=CC(O)C(=O)C=CC=Cc4csc(n4)C(C)N(C(=O)C2)[S+]3[O-])cc1 (centres unmarked) [Compound 33] showed a pIC50 of 7.96.
COC(=O)Nc1cccc(C(=O)OCSC(=O)C(C)(O)C23CCC(C)=CC(O)C(=O)C=CC=Cc4csc(n4)C(C)N(C(=O)C2)[S+]3[O-])c1 (centres unmarked) [Compound 34] gave a pIC50 of 7.26.
In the case of COC1(OC2/C=C(\C)CCC3(C(C)(O)C(=O)SCOC(=O)CNC(=O)OC(C)(C)C)CC(=O)N(C(C)c4nc(cs4)/C=C\C=C\C2=O)[S+]3[O-])CCOCC1 (centres unmarked) [Compound 39], the pIC50 was 8.66.
With COC1(OC2/C=C(\C)CCC3(C(C)(O)C(=O)SCOC(=O)c4cccc(OC(C)=O)c4)CC(=O)N(C(C)c4nc(cs4)/C=C\C=C\C2=O)[S+]3[O-])CCOCC1 (centres unmarked) [Compound 55] the pIC50 was 7.96.

Same assay, conditions: Homo sapiens, HeLa S3, 72 h, footnote *: Value after 72 hours of drug treatment; read-out: IC50, HeLa S3 cell growth inhibition
With CC1=CC(O)C(=O)C=CC=Cc2csc(n2)C(C)N2C(=O)CC(C(C)(O)C(=O)SCOC(=O)c3ccc(C(=O)O)cc3)(CC1)[S+]2[O-] (centres unmarked) [Compound 9] the pIC50 was 6.82.

Same assay, conditions: Homo sapiens, HeLa S3, 72 h, read-out: IC50, HeLa S3 cell growth inhibition, HeLa S3; 72 hours incubation; Neutral Red
With COC(=O)CCCCC(=O)OCSC(=O)C(C)(O)C12CCC(C)=CC(O)C(=O)C=CC=Cc3csc(n3)C(C)N(C(=O)C1)[S+]2[O-] (centres unmarked) [Compound 2] the pIC50 was 8.12.
CC1=CC(O)C(=O)C=CC=Cc2csc(n2)C(C)N2C(=O)CC(C(C)(O)C(=O)SCOC(=O)C(C)(C)NC(=O)OC(C)(C)C)(CC1)[S+]2[O-] (centres unmarked) [Compound 5] gave a pIC50 of 7.26.
With CC1=CC(O)C(=O)C=CC=Cc2csc(n2)C(C)N2C(=O)CC(C(C)(O)C(=O)SCOC(=O)c3ccccc3)(CC1)[S+]2[O-] (centres unmarked) [Compound 6] the pIC50 was 7.74.
Compound CC1=CC(O)C(=O)C=CC=Cc2csc(n2)C(C)N2C(=O)CC(C(C)(O)C(=O)SCOC(=O)CCNC(=O)[C@H]3O[C@@H]4OC(C)(C)O[C@@H]4[C@H]4OC(C)(C)O[C@H]43)(CC1)[S+]2[O-] (some centres unmarked) [Compound 21] has a pIC50 of 6.42.
Work on COC(=O)N[C@@H](CCC(=O)OCSC(=O)C(C)(O)C12CCC(C)=CC(O)C(=O)C=CC=Cc3csc(n3)C(C)N(C(=O)C1)[S+]2[O-])C(=O)OC (some centres unmarked) [Compound 23] yielded a pIC50 of 7.24.
CC1=CC(O)C(=O)C=CC=Cc2csc(n2)C(C)N2C(=O)CC(C(C)(O)C(=O)SCOC(=O)CCCN3C(=O)C=CC3=O)(CC1)[S+]2[O-] (centres unmarked) [Compound 28] showed a pIC50 of 6.12.
Compound CC(=O)Oc1cccc(C(=O)OCSC(=O)C(C)(O)C23CCC(C)=CC(O)C(=O)C=CC=Cc4csc(n4)C(C)N(C(=O)C2)[S+]3[O-])c1 (centres unmarked) [Compound 31] has a pIC50 of 8.21.
In the case of COCCOCCOCC(=O)OCOC1/C=C(\C)CCC2(C(C)(O)C(=O)SCOC(=O)COCCOCCOC)CC(=O)N(C(C)c3nc(cs3)/C=C\C=C\C1=O)[S+]2[O-] (centres unmarked) [Compound 36], the pIC50 was 7.70.
C/C1=C\C(OC2CCCCO2)C(=O)/C=C/C=C\c2csc(n2)C(C)N2C(=O)CC(C(C)(O)C(=O)SCOC(=O)CNC(=O)OC(C)(C)C)(CC1)[S+]2[O-] (centres unmarked) [Compound 38] showed a pIC50 of 8.42.
With C/C1=C\C(OC2CCCCO2)C(=O)/C=C/C=C\c2csc(n2)C(C)N2C(=O)CC(C(C)(O)C(=O)SCOC(=O)CNC(=O)[C@@]34O[C@H]5COC(C)(C)O[C@H]5[C@@H]3OC(C)(C)O4)(CC1)[S+]2[O-] (some centres unmarked) [Compound 43] the pIC50 was 7.62.
Compound C/C1=C\C(OC2CCCCO2)C(=O)/C=C/C=C\c2csc(n2)C(C)N2C(=O)CC(C(C)(O)C(=O)SCOC(=O)CCNC(=O)[C@@]34O[C@H]5COC(C)(C)O[C@H]5[C@@H]3OC(C)(C)O4)(CC1)[S+]2[O-] (some centres unmarked) [Compound 44] has a pIC50 of 8.07.
Work on COC(=O)[C@H](CCC(=O)OCSC(=O)C(C)(O)C12CC/C(C)=C/C(OC3CCCCO3)C(=O)/C=C/C=C\c3csc(n3)C(C)N(C(=O)C1)[S+]2[O-])NC(=O)[C@@]12O[C@H]3COC(C)(C)O[C@H]3[C@@H]1OC(C)(C)O2 (some centres unmarked) [Compound 49] yielded a pIC50 of 7.52.
In the case of CC(=O)Oc1ccc(CCCC(=O)OCSC(=O)C(C)(O)C23CC/C(C)=C/C(OC4CCCCO4)C(=O)/C=C/C=C\c4csc(n4)C(C)N(C(=O)C2)[S+]3[O-])cc1 (centres unmarked) [Compound 56], the pIC50 was 9.28.
COC(=O)Nc1cccc(C(=O)OCSC(=O)C(C)(O)C23CC/C(C)=C/C(OC4CCCCO4)C(=O)/C=C/C=C\c4csc(n4)C(C)N(C(=O)C2)[S+]3[O-])c1 (centres unmarked) [Compound 57] showed a pIC50 of 7.44.
Work on COC(=O)Nc1cccc(C(=O)OCSC(=O)C(C)(O)C23CC/C(C)=C/C(OC4(OC)CCOCC4)C(=O)/C=C/C=C\c4csc(n4)C(C)N(C(=O)C2)[S+]3[O-])c1 (centres unmarked) [Compound 58] yielded a pIC50 of 7.42.
C/C1=C\C(O)C(=O)/C=C/C=C\c2csc(n2)C(C)N2C(=O)CC(C(C)(O)C(=O)SCOC(=O)CCNC(=O)[C@@]34O[C@@H](CO)[C@@H](O)[C@@H]3OC(C)(C)O4)(CC1)[S+]2[O-] (some centres unmarked) [Compound 59] showed a pIC50 of 5.89.
With COC(=O)[C@H](CCC(=O)OCSC(=O)C(C)(O)C12CC/C(C)=C/C(O)C(=O)/C=C/C=C\c3csc(n3)C(C)N(C(=O)C1)[S+]2[O-])NC(=O)C(C)(CO)CO (some centres unmarked) [Compound 61] the pIC50 was 6.14.
C/C1=C\C(O)C(=O)/C=C/C=C\c2csc(n2)C(C)N2C(=O)CC(C(C)(O)C(=O)SCOC(=O)c3ccc(O)cc3)(CC1)[S+]2[O-] (centres unmarked) [Compound 67] was tested, and the pIC50 was 7.30.
C/C1=C\C(OC2CCCCO2)C(=O)/C=C/C=C\c2csc(n2)C(C)N2C(=O)CC(C(C)(O)C(=O)SCOC(=O)c3ccc(O)cc3)(CC1)[S+]2[O-] (centres unmarked) [Compound 68] gave a pIC50 of 7.46.
C/C1=C\C(OC2CCCCO2)C(=O)/C=C/C=C\c2csc(n2)C(C)N2C(=O)CC(C(C)(O)C(=O)SCOC(=O)c3cccc(O)c3)(CC1)[S+]2[O-] (centres unmarked) [Compound 69] gave a pIC50 of 7.12.
Compound COC(=O)[C@H](CCC(=O)OCSC(=O)C(C)(O)C12CC/C(C)=C/C(OC3CCCCO3)C(=O)/C=C/C=C\c3csc(n3)C(C)N(C(=O)C1)[S+]2[O-])NC(=O)c1ccc(O)cc1 (some centres unmarked) [Compound 71] has a pIC50 of 8.92.
In the case of C/C1=C\C(OC2CCCCO2)C(=O)/C=C/C=C\c2csc(n2)C(C)N2C(=O)CC(C(C)(O)C(=O)SCc3oc(=O)oc3CCl)(CC1)[S+]2[O-] (centres unmarked) [Compound 74], the pIC50 was 7.72.

Same assay, conditions: Homo sapiens; HeLa S3; 72 hours incubation; Neutral Red; read-out: IC50, HeLa S3 cell growth inhibition
C/C1=C\C(OC2CCCCO2)C(=O)/C=C/C=C\c2csc(n2)C(C)N2C(=O)CC(C(C)(O)C(=O)SCOC(=O)c3ccc(OP(=O)(O)O)cc3)(CC1)[S+]2[O-] (centres unmarked) [Compound 72] was tested, and the pIC50 was 6.19.
Work on C/C1=C\C(OC2CCCCO2)C(=O)/C=C/C=C\c2csc(n2)C(C)N2C(=O)CC(C(C)(O)C(=O)SCOC(=O)c3cccc(OP(=O)(O)O)c3)(CC1)[S+]2[O-] (centres unmarked) [Compound 73] yielded a pIC50 of 5.72.

Same assay, conditions: read-out: IC50, HeLa S3 cell growth inhibition; HeLa S3; 72 hours incubation; Neutral Red
With C/C1=C\C(OC2CCCCO2)C(=O)/C=C/C=C\c2csc(n2)C(C)N2C(=O)CC(C(C)(O)C(=O)SCOC(=O)CNC(=O)[C@@]34O[C@@H](CO)[C@@H](O)[C@@H]3OC(C)(C)O4)(CC1)[S+]2[O-] (single isomer, unassigned) [Compound 62] the pIC50 was 7.15.
C/C1=C\C(OC2CCCCO2)C(=O)/C=C/C=C\c2csc(n2)C(C)N2C(=O)CC(C(C)(O)C(=O)SCOC(=O)CNC(=O)[C@@]34O[C@@H](CO)[C@@H](O)[C@@H]3OC(C)(C)O4)(CC1)[S+]2[O-] (single isomer, unassigned) [Compound 63] was tested, and the pIC50 was 6.57.
